From ChEMBL document CHEMBL3232727, “Evaluation of bisindole as potent β-glucuronidase inhibitors: synthesis and in silico based studies” (Bioorg Med Chem Lett, 2014)

Molecular target: T1, Beta-glucuronidase (Bos taurus, UniProt A3KMY8)
T1 sequence (A3KMY8 whole entry): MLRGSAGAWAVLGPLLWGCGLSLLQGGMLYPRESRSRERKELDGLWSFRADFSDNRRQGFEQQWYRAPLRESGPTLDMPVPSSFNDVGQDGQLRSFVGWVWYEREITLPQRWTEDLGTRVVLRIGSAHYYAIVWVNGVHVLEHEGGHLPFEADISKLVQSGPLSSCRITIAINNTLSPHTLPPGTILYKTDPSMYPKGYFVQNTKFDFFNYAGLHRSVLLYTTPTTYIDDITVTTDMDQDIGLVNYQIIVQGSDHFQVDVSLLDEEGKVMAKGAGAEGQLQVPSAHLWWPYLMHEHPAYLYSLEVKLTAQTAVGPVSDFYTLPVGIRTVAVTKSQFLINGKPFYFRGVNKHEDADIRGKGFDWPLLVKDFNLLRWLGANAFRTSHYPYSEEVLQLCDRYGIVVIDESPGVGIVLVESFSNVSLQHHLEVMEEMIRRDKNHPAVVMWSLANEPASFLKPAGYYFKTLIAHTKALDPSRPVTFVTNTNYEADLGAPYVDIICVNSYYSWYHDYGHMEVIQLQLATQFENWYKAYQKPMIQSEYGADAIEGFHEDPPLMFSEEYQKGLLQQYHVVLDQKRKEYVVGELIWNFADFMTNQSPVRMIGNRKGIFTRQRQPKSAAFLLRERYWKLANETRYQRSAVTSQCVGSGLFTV
Test: (§1) Inhibition of bovine liver beta-glucuronidase using p-nitrophenyl-beta-D-glucuronide as substrate after 30 mins by spectrophotometry

SMILES	IC50 [µM]
N#Cc1ccc2[nH]cc(C(c3ccccc3[N+](=O)[O-])c3c[nH]c4ccc(C#N)cc34)c2c1	19.9
Cc1ccccc1C(c1c[nH]c2ccc(Br)cc12)c1c[nH]c2ccc(Br)cc12	20.9
Oc1ccc(C(c2c[nH]c3ccc(Br)cc23)c2c[nH]c3ccc(Br)cc23)c(O)c1	1.62
Fc1ccccc1C(c1c[nH]c2ccc(Br)cc12)c1c[nH]c2ccc(Br)cc12	18.4
Clc1cccc(C(c2c[nH]c3ccc(Br)cc23)c2c[nH]c3ccc(Br)cc23)c1	22.3
Clc1ccc(C(c2c[nH]c3ccc(Br)cc23)c2c[nH]c3ccc(Br)cc23)cc1Cl	21.5

Molecular target: T2, Beta-glucuronidase (Bos taurus) (UniProt A3KMY8)
T2 sequence (whole entry): T1 sequence (A3KMY8 whole entry)
Test: as §1
Set-up: concentration or dose not given beside the values

SMILES	inhibition [%]
CSc1ccc(C(c2c[nH]c3ccc(Br)cc23)c2c[nH]c3ccc(Br)cc23)cc1	< 50
N#Cc1ccc2[nH]cc(C(c3ccc(Cl)c(Cl)c3)c3c[nH]c4ccc(C#N)cc34)c2c1	< 50
O=[N+]([O-])c1ccc(C(c2c[nH]c3ccc(Br)cc23)c2c[nH]c3ccc(Br)cc23)cc1	< 50
COc1cc(C(c2c[nH]c3ccc(Br)cc23)c2c[nH]c3ccc(Br)cc23)ccc1O	< 50
CSc1ccc(C(c2c[nH]c3ccc(C#N)cc23)c2c[nH]c3ccc(C#N)cc23)cc1	< 50
O=[N+]([O-])c1ccccc1C(c1c[nH]c2ccc(Br)cc12)c1c[nH]c2ccc(Br)cc12	< 50
COc1ccccc1C(c1c[nH]c2ccc(Br)cc12)c1c[nH]c2ccc(Br)cc12	< 50
